Results reported in US20200247815A1, “PYRAZOLYL-CONTAINING TRICYCLIC DERIVATIVE, PREPARATION METHOD THEREFOR AND USE THEREOF” (Jiangsu Hansoh Pharmaceutical Group Co., Ltd., priority 2017, published 2020).

Key:
ERK-1 kinase = target: T1, ERK-1 kinase (Homo sapiens, UniProt P27361); assay: Inhibition of ERK-1 kinase activity (LANCE Ultra TR-FRET); format: biochemical; conditions: ERK1 enzyme 0.4 nM, ATP 38.15 μM
T1 construct: purchased Invitrogen PV3311
Method: (§1) The object of this test example is to determine the inhibition effect of the compound on ERK-1 kinase activity. In vitro ERK-1 kinase analysis was carried out by using LANCE Ultra (Perkin Elmer) method. The reaction (reaction system 10 μL) was conducted by adding 2.5 μL of test compound/DMSO (final 4%, V/V, diluted to 10 concentrations (400 nM to 0.02 nM) using a 1:3 dilution scheme), 5 μL of a mixed solution of ERK1 enzyme (Invitrogen, # PV3311, final concentration: 0.4 nM) and substrate Ulight-MBP peptide (Perkin Elmer, # TRF0109-M, final concentration: 0.5 μM) formulated with a kinase buffer (50 mM Hepes pH 7.4, 10 mM MgCl2, 1 mM EGTA, 0.01% Triton X-100, 2 mM DTT) and 2.5 μL of ATP solution (Invitrogen, # PV3227, final concentration: 38.15 μM) formulated with the same buffer successively to a 384-well plate (Perkin Elmer OPTIPLATE™) and mixing well. The reaction mixture was incubated at room temperature for 60 minutes. The reaction was stopped by adding 1× LANCE Detection buffer (PerkinElmer # CR97-100) diluted with ultra-pure water, mM EDTA (Invitrogen #15575038) and 1 nM Eu-anti-p-MBP (PerkinElmer # TRF0201-M) antibody in 10 μL/well. The plate was incubated at room temperature for 60 minutes. Excitation reading was performed on Synergy H1 Hybird Reader, H1MFD (Biotek) with an excitation wavelength of 320 nm. TR-FRET rate was calculated by dividing the acceptor emission signal (signal value at 665 nM) by the Eu donor emission signal (signal value at 615 nM). The inhibition TR-FRET rate of the well treated by the compound was calculated relative to the Max signal (DMSO control) and Min signal (no enzyme added) control wells on the plate {% inhibition rate=100−[(test compound−Min average)]/(Max average−Min average)×100}. The 10 concentrations of the compound after 4-fold dilution of the reaction system were 100 nM to 0.005 nM. Abs_IC50 value was calculated by using GraphPad prism fits percentage inhibition rate and ten-point concentration data in a 4-parameter non-linear logic formula.

[1] = tested on: pancreatic cancer tumor cell Mia Paca 2; assay: Inhibition of tumor cell proliferation (CellTiter-Glo); format: cell-based; conditions: Homo sapiens, Miapaca-2 cell, 3-7 days
Method: The object of this test example is to determine the inhibition effect of the present compound on tumor cell proliferation activity. The inhibition activity of the compound on tumor cell proliferation was determined by CellTiter-Glo method, and the half inhibitory concentration IC50 of the compound for inhibiting cell proliferation activity was obtained, 50-100 μL of tumor cell suspension was inoculated in a 96-well cell culture plate with a density of 1˜5*10^4 cells/ml. The plate was incubated in an incubator for 16˜24 hours (37° C., 5% CO2). Solutions of test compounds at different concentrations obtained by gradient dilution were added to the cells in the plate. The plate was incubated in an incubator for 3-7 days (37° C., 5% CO2), 50˜100 μL of CellTiter-Glo reagent was added to each well. The plate was shaked for 10 minutes, and left to stand at room temperature for 10 minutes. The value of the chemiluminescence signal was determined by a microplate reader. The inhibition rate was calculated from the value of the chemiluminescence signal. IC50 of the compound was obtained by curve fitting based on the inhibition rate at different concentrations.
The inhibition effect of the present compound on pancreatic cancer tumor cell Mia Paca 2 proliferation activity was determined by the test, and the obtained IC50 value is shown in Table 2.

ERK-2 kinase = target: T2, ERK-2 kinase (Homo sapiens, UniProt P28482); assay: Inhibition of ERK-2 kinase activity (LANCE Ultra TR-FRET); format: biochemical; conditions: ERK-2 enzyme 0.08 nM, ATP 38.15 μM
T2 construct: purchased Invitrogen PV3313
T2 sequence (P28482 whole entry): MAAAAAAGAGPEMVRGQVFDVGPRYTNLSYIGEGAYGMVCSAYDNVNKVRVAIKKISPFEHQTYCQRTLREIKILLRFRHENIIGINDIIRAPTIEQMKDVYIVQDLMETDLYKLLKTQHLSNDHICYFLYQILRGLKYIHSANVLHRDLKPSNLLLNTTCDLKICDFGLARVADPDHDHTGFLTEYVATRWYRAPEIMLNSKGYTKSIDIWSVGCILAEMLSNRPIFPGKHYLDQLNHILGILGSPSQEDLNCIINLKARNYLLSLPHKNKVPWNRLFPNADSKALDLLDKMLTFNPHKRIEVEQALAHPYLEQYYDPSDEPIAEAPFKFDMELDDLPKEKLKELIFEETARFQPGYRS
Method: as §1, with “ERK-2” for “ERK-1”, “ERK-2” for “ERK1”, “PV3313,” for “PV3311,”, “0.08” for “0.4”, “EGTA” for “EGTA,”, “IX” for “1×”

T1 sequence (P27361 whole entry): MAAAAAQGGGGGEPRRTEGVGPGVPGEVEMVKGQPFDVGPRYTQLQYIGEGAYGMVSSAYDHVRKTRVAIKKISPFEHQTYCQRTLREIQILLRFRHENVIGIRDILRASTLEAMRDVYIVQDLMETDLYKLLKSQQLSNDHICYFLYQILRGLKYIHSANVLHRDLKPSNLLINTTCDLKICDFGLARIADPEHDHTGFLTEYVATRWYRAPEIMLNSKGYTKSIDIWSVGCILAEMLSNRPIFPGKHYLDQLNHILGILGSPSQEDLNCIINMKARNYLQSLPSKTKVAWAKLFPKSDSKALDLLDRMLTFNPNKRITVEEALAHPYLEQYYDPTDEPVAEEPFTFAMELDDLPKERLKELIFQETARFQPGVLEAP

| IC50 (ERK-1 kinase) | IC50 [1] | IC50 (ERK-2 kinase) | Structure (SMILES) |
| --- | --- | --- | --- |
| 1.08 nM | 244 nM | 1.23 nM | Cc1cc(-c2n[nH]c3cc4[nH]c(C(=O)N[C@H](C)c5ccccc5)nc4cc23)ccn1 [Example 36, (R)-3-(2-methylpyridin-4-yl)-N-(1-phenylethyl)-1,7-dihydroimidazo[4,5-f]indazole-6-carboxamide] |
| 0.3 nM | 59.1 nM | 0.17 nM | Cc1cccc([C@@H](C)NC(=O)c2nc3cc4c(-c5ccncc5)n[nH]c4cc3[nH]2)c1 [Example 21, (R)-3-(pyridin-4-yl)-N-(1-(m-tolyl)ethyl)-1,7-dihydroimidazo[4,5-f]indazole-6-carboxamide] |
| 0.1 nM | 202 nM | 0.1 nM | O=C(N[C@H](CO)c1cccc(Cl)c1)c1nc2cc3c(-c4ccncc4)n[nH]c3cc2[nH]1 [Example 28, (S)—N-(1-(3-chlorophenyl)-2-hydroxyethyl)-3-(pyridin-4-yl)-1,7-dihydroimidazo[4,5-f]indazole-6-carboxamide] |
| 0.52 nM | 309 nM | 0.32 nM | O=C(N[C@H](CNC1CC1)c1ccccc1)c1nc2cc3c(-c4ccncc4)n[nH]c3cc2[nH]1 [Example 54, (S)—N-(2-(cyclopropylamino)-1-phenylethyl)-3-(pyridin-4-yl)-1,7-dihydroimidazo[4,5-f]indazole-6-carboxamide] |
| 0.29 nM | 55.5 nM | 0.17 nM | CNC[C@@H](NC(=O)c1nc2cc3c(-c4ccncc4)n[nH]c3cc2[nH]1)c1ccccc1 [Example 50, (S)—N-(2-(methylamino)-1-phenylethyl)-3-(pyridin-4-yl)-1,7-dihydroimidazo[4,5-f]indazole-6-carboxamide] |
| 3.73 nM |  | 1.58 nM | O=C(c1nc2cc3c(-c4ccncc4)n[nH]c3cc2[nH]1)N1C[C@@H]1c1ccccc1 [Example 65, (S)-(2-Phenylaziridin-1-yl)(3-(pyridin-4-yl)-1,7-dihydroimidazo[4,5-f]indazol-6-yl)methanone] |
| 2.34 nM |  | 1.15 nM | CC[C@@H](NC(=O)c1nc2cc3c(-c4ccncc4)n[nH]c3cc2[nH]1)c1ccccc1 [Example 17, (R)—N-(1-phenylpropyl)-3-(pyridin-4-yl)-1,7-dihydroimidazo[4,5-f]indazole-6-carboxamide] |
| 0.25 nM |  | 0.08 nM | O=C(NNc1ccccc1)c1nc2cc3c(-c4ccncc4)n[nH]c3cc2[nH]1 [Example 76, N′-phenyl-3-(pyridin-4-yl)-1,7-dihydroimidazo[4,5-f]indazole-6-carbohydrazide] |
| 0.49 nM |  | 0.17 nM | Cc1cccc([C@@H](C)NC(=O)c2nc3cc4c(-c5ccncc5)n[nH]c4cc3[nH]2)n1 [Example 47, (R)—N-(1-(6-methylpyridin-2-yl)ethyl)-3-(pyridin-4-yl)-1,7-dihydroimidazo[4,5-f]indazole-6-carboxamide] |
| 2.5 nM |  | 0.24 nM | O=C(CNC(=O)c1nc2cc3c(-c4ccncc4)n[nH]c3cc2[nH]1)c1ccccc1 [Example 72, N-(2-oxo-2-phenylethyl)-3-(pyridin-4-yl)-1,7-dihydroimidazo[4,5-f]indazole-6-carboxamide] |
| 1.52 nM |  | 0.83 nM | C[C@@H](CNC(=O)c1nc2cc3c(-c4ccncc4)n[nH]c3cc2[nH]1)c1ccccc1 [Example 66, (R)—N-(2-phenylpropyl)-3-(pyridin-4-yl)-1,7-dihydroimidazo[4,5-f]indazole-6-carboxamide] |
| 2.61 nM |  | 0.93 nM | COc1ccc(-c2n[nH]c3cc4[nH]c(C(=O)N[C@H](C)c5ccccc5)nc4cc23)cn1 [Example 84, (R)-3-(6-methoxypyridin-3-yl)-N-(1-phenylethyl)-1,7-dihydroimidazo[4,5-f]indazole-6-carboxamide] |
| 2.86 nM |  | 1.07 nM | O=C(NCc1ccccc1)c1nc2cc3c(-c4ccncc4)n[nH]c3cc2[nH]1 [Example 114, N-benzyl-3-(pyridin-4-yl)-1,7-dihydroimidazo[4,5-f]indazole-6-carboxamide] |
| 3.32 nM |  | 1.02 nM | CC(C)c1cccc([C@@H](C)NC(=O)c2nc3cc4c(-c5ccncc5)n[nH]c4cc3[nH]2)c1 [Example 98, (R)—N-(1-(3-Isopropylphenyl)ethyl)-3-(pyridin-4-yl)-1,7-dihydroimidazo[4,5-f]indazole-6-carboxamide] |
| 2.09 nM |  | 0.84 nM | Cc1ccc([C@@H](C)NC(=O)c2nc3cc4c(-c5ccncc5)n[nH]c4cc3[nH]2)cc1 [Example 6, (R)-3-(pyridin-4-yl)-N-(1-(p-tolyl)ethyl)-1,7-dihydroimidazo[4,5-f]indazole-6-carboxamide] |
| 2.18 nM |  | 0.8 nM | O=C(NC(CCO)c1ccccc1)c1nc2cc3c(-c4ccncc4)n[nH]c3cc2[nH]1 (stereo not drawn) [Example 71, N-(3-hydroxy-1-phenylpropyl)-3-(pyridin-4-yl)-1,7-dihydroimidazo[4,5-f]indazole-6-carboxamide] |
| 0.64 nM |  | 0.29 nM | CC(NC(=O)c1nc2cc3c(-c4ccncc4)n[nH]c3cc2[nH]1)c1ccccc1 (stereo not drawn) [Example 11, N-(1-phenylethyl)-3-(pyridin-4-yl)-1,7-dihydroimidazo[4,5-f]indazole-6-carboxamide] |
| 4.42 nM |  | 2.17 nM | COc1ccc(-c2n[nH]c3cc4[nH]c(C(=O)N[C@H](C)c5ccccc5)nc4cc23)cc1 [Example 95, (R)-3-(4-methoxyphenyl)-N-(1-phenylethyl)-1,7-dihydroimidazo[4,5-f]indazole-6-carboxamide] |
| 2.4 nM |  | 1.33 nM | COc1cc(-c2n[nH]c3cc4[nH]c(C(=O)N[C@H](C)c5ccccc5)nc4cc23)ccn1 [Example 86, (R)-3-(2-methoxypyridin-4-yl)-N-(1-phenylethyl)-1,7-dihydroimidazo[4,5-f]indazole-6-carboxamide] |
| 6.41 nM |  | 2.72 nM | C[C@@H](NC(=O)c1nc2cc3c(-c4ccncc4)n[nH]c3cc2[nH]1)c1ccc(Br)cc1 [Example 15, (R)—N-(1-(4-bromophenyl)ethyl)-3-(pyridin-4-yl)-1,7-dihydroimidazo[4,5-f]indazole-6-carboxamide] |
